Assay results: patent publication US8569288B2, “Thienotriazolodiazepine derivatives active on apo A” (CircoMed LLC, priority 2008, dated 2013)
Where two headings read alike, the source gives them in different places.

Tests used:
[1] = molecular target: platelet activating factor (PAF) (Homo sapiens, UniProt P25105); conditions: known related thienotriazolodiazepine; cited from earlier work
[2] = tested on: apo A1 secretion in human hepatocytes; assay: Apo A1 secretion by human hepatocytes (ELISA of supernatant, normalised to cell protein); type: cell-based; conditions: for Apo A1 (ng secreted per mg cell protein), 1st / Apo A1 (ng secreted per mg cell protein), 2nd / Apo A1 (ng secreted per mg cell protein), mean: 3x24 h; for Apo A1 (ng secreted per mg cell protein), 1st: 1st parallel measurement; for Apo A1 (ng secreted per mg cell protein), 2nd: 2nd parallel measurement; for Apo A1 (ng secreted per mg cell protein), mean: mean of two measurements; for Stimulation of apo A1 secretion versus control level (in words): at concentrations as low as 3 μM, human hepatocytes
Protocol: Human hepatocytes were isolated from pieces of livers, obtained from donors which could not be used for transplantation, following the procedure described in U.S. Pat. No. 6,444,664. The cells were seeded on culture dishes at a density of 1.5×10^5 viable cells per cm^2 and were maintained for the first 24 h in 1.5 mL per 10 cm^2 of Williams E medium supplemented with 10% heat inactivated fetal calf serum (FCS), 2 mmol/L L-glutamine, 20 mU/mL insulin (135 nmol/L), 50 nmol/L dexamethasone, 100 U/mL penicillin, 100 μg/mL streptomycin and 100 μg/mL kanamycin at 37° C. in a 5% CO2/95% air atmosphere. After 14-16 h the non-adherent cells were washed from the plates, using the same culture medium as described above. 24 h after seeding, the incubations with the compounds were started in 1 mL of the same culture medium, but with an insulin concentration of 10 nmol/L instead of 135 nmol/L.
The human hepatocytes were treated with compounds 5, 6 and 7 (dissolved in DMSO, with the final concentration of DMSO not exceeding 0.1% v/v) at concentrations of 100 μM, 30 μM, 10 μM and 3 μM and incubated for 24 hours. The DMSO concentration in all samples and controls was 0.1%. The control wells contained DMSO (0.1% v/v) alone. The medium on the cells was removed and replaced with fresh medium with fresh compound and incubated for 24 hours. The medium was then again removed and replaced with fresh medium with fresh compound and incubated for another 24 hours. The supernatant was then removed from the cells and levels of apo A1 were determined using a commercially available ELISA (AlerCHEK™) with a HRP conjugated goat anti-apo A1 antibody and TMB/peroxidase substrate colour developer. Supernatants were diluted 1:4 with the wash buffer provided in the kit.
After the last incubation the cells were washed twice with PBS, and BCA (bicinchoninic acid) reagent was added to each well to assay total cellular protein according to standard methods.

[3] = tested on: central benzodiazepine receptor (BZD); assay: Binding to central benzodiazepine receptor, [3H]flunitrazepam displacement on rat cerebral cortex membranes; conditions: for % of control specific binding, 1st / % of control specific binding, 2nd / % of control specific binding, mean / IC50: 0.4 nM [3H]flunitrazepam
Protocol: Affinity of the compounds of the invention to the central benzodiazepine receptor (BZD) was measured by determining the binding of 0.4 nM [^3H]flunitrazepam to rat cerebral cortex membranes, and its displacement by compounds of the invention as compared to the reference ligand diazepam, at 4° C. for 60 min, as described by R. C. Speth et al., Life Sci. 24:351-358 (1979).
The specific binding to the receptors is defined as the difference between the total binding and the non-specific binding determined in the presence of an excess of unlabeled ligand (diazepam). The results are expressed as a percent of control specific binding ((measured specific binding/control specific binding)×100) obtained in the presence of compound 5, 6 and 7.
In each experiment, the respective reference compound was tested concurrently with compound 5, 6 and 7 in order to assess the assay suitability. It was tested at several concentrations (for IC50 value determination).

[4] = tested on: plasma apolipoprotein A1 (apo A1); conditions: as described in U.S. Pat. No. 5,854,238; cited from earlier work

Chain of platelet activating factor (PAF) (P25105 whole entry): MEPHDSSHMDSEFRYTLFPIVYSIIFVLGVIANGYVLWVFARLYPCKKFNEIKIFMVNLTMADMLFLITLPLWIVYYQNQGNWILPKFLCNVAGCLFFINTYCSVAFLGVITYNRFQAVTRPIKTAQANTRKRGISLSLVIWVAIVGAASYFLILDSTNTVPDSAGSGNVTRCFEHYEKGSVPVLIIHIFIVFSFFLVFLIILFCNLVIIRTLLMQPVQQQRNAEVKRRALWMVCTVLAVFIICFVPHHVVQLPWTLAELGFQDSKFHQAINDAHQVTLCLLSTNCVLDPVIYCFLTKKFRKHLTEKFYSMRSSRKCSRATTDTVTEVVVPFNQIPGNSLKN

Structure (SMILES) | Apo A1 (ng secreted per mg cell protein), 1st ([2]; 3 μM) | Apo A1 (ng secreted per mg cell protein), 2nd ([2]; 3 μM) | Apo A1 (ng secreted per mg cell protein), mean ([2]; 3 μM) | Apo A1 (ng secreted per mg cell protein), 1st ([2]; 10 μM) | Apo A1 (ng secreted per mg cell protein), 2nd ([2]; 10 μM) | Apo A1 (ng secreted per mg cell protein), mean ([2]; 10 μM) | Apo A1 (ng secreted per mg cell protein), 1st ([2]; 30 μM) | Apo A1 (ng secreted per mg cell protein), 2nd ([2]; 30 μM) | Apo A1 (ng secreted per mg cell protein), mean ([2]; 30 μM) | Apo A1 (ng secreted per mg cell protein), 1st ([2]; 100 μM) | Apo A1 (ng secreted per mg cell protein), 2nd ([2]; 100 μM) | Apo A1 (ng secreted per mg cell protein), mean ([2]; 100 μM) | Stimulation of apo A1 secretion versus control level (in words) [2] | Affinity to the benzodiazepine receptor (in words) [3] | % of control specific binding, 1st ([3]; 10^−6 M) | % of control specific binding, 2nd ([3]; 10^−6 M) | % of control specific binding, mean ([3]; 10^−6 M) | % of control specific binding, 1st ([3]; 10^−7 M) | % of control specific binding, 2nd ([3]; 10^−7 M) | % of control specific binding, mean ([3]; 10^−7 M) | further results
Cc1nnc2n1-c1sc(CCC(=O)N3CCOCC3)cc1C(c1ccccc1Cl)=NC2 [WEB2086] |  |  |  |  |  |  |  |  |  |  |  |  |  |  |  |  |  |  |  |  | PAF antagonistic activity (in words) [1]: platelet activating factor (PAF) antagonistic activity
Cc1nnc2n1-c1sccc1C(c1ccccc1)=NC2(C)C [compound 5, 6,6-Dimethyl-4-phenyl-9-methyl-6H-thieno[3,2f]-s-triazolo[4,3-a][1,4]diazepine] | 247 ng secreted per mg cell protein | 124 ng secreted per mg cell protein | 185 ng secreted per mg cell protein | 274 ng secreted per mg cell protein | 156 ng secreted per mg cell protein | 215 ng secreted per mg cell protein | 219 ng secreted per mg cell protein | 227 ng secreted per mg cell protein | 223 ng secreted per mg cell protein | 273 ng secreted per mg cell protein | 277 ng secreted per mg cell protein | 275 ng secreted per mg cell protein | stimulated secetion of apo A1 above the control level | no significant affinity | 90.0 % of control specific binding | 100.4 % of control specific binding | 95.2 % of control specific binding | 91.5 % of control specific binding | 96.7 % of control specific binding | 94.1 % of control specific binding | % of control specific binding, 1st ([3]; 10^−8 M): 102.0 % of control specific binding; % of control specific binding, 2nd ([3]; 10^−8 M): 94.3 % of control specific binding; % of control specific binding, mean ([3]; 10^−8 M): 98.2 % of control specific binding; % of control specific binding, 1st ([3]; 10^−9 M): 88.9 % of control specific binding; % of control specific binding, 2nd ([3]; 10^−9 M): 104.6 % of control specific binding; % of control specific binding, mean ([3]; 10^−9 M): 96.8 % of control specific binding
Cc1nnc2n1-c1sccc1C(c1ccc3c(c1)OCO3)=NC2 [compound 6, 4-(3′,4′-Methylenedioxyphenyl)-9-methyl-6H-thieno[3,2-f]-s-triazolo[4,3-a][1,4]diazepine] | 144 ng secreted per mg cell protein | 160 ng secreted per mg cell protein | 152 ng secreted per mg cell protein | 186 ng secreted per mg cell protein | 212 ng secreted per mg cell protein | 199 ng secreted per mg cell protein | 290 ng secreted per mg cell protein | 293 ng secreted per mg cell protein | 292 ng secreted per mg cell protein | 397 ng secreted per mg cell protein | 276 ng secreted per mg cell protein | 336 ng secreted per mg cell protein | stimulated secetion of apo A1 above the control level | no significant affinity | 88.7 % of control specific binding | 100.5 % of control specific binding | 94.6 % of control specific binding | 104.1 % of control specific binding | 101.3 % of control specific binding | 102.7 % of control specific binding | % of control specific binding, 1st ([3]; 10^−8 M): 92.7 % of control specific binding; % of control specific binding, 2nd ([3]; 10^−8 M): 91.0 % of control specific binding; % of control specific binding, mean ([3]; 10^−8 M): 91.9 % of control specific binding; % of control specific binding, 1st ([3]; 10^−9 M): 110.1 % of control specific binding; % of control specific binding, 2nd ([3]; 10^−9 M): 83.2 % of control specific binding; % of control specific binding, mean ([3]; 10^−9 M): 96.7 % of control specific binding
Cc1nnc2n1-c1sccc1C(c1ccccc1)=NC2 [compound 7, 9-Methyl-4-phenyl-6H-thieno[3,2-f]-s-triazolo[4,3-a][1,4]diazepine, reference compound] | 91 ng secreted per mg cell protein | 91 ng secreted per mg cell protein | 91 ng secreted per mg cell protein | 266 ng secreted per mg cell protein | 191 ng secreted per mg cell protein | 229 ng secreted per mg cell protein | 236 ng secreted per mg cell protein | 374 ng secreted per mg cell protein | 305 ng secreted per mg cell protein | 254 ng secreted per mg cell protein | 364 ng secreted per mg cell protein | 309 ng secreted per mg cell protein | clearly less active | moderate affinity | 18.9 % of control specific binding | 17.9 % of control specific binding | 18.4 % of control specific binding | 73.5 % of control specific binding | 68.0 % of control specific binding | 70.7 % of control specific binding | Activity in increasing plasma apo A1 (in words) [4]: active in increasing plasma apolipoprotein A1; IC50 ([3]; rat cerebral cortex membranes, read-out: IC50 of displacing the labelled ligand): ~500 nM; % of control specific binding, 1st ([3]; 10^−5 M): 2.3 % of control specific binding; % of control specific binding, 2nd ([3]; 10^−5 M): 1.8 % of control specific binding; % of control specific binding, mean ([3]; 10^−5 M): 2.1 % of control specific binding; % of control specific binding, 1st ([3]; 10^−8 M): 89.0 % of control specific binding; % of control specific binding, 2nd ([3]; 10^−8 M): 104.1 % of control specific binding; % of control specific binding, mean ([3]; 10^−8 M): 96.5 % of control specific binding
CN1C(=O)CN=C(c2ccccc2)c2cc(Cl)ccc21 [diazepam, reference compound] |  |  |  |  |  |  |  |  |  |  |  |  |  |  |  |  |  |  |  |  | IC50 ([3]; 4° C., 60 min, read-out: IC50 of reference ligand in BZD binding assay): 16 nM
